The results in this text go back to patent US7825146B2, “Sulfonamide derivative having isoxazole ring” (Shionogi & Co., Ltd., priority 2003, dated 2010).

Molecules are shown by their SMILES.

For one data set, the target named is T1, MMP-2 (Homo sapiens, UniProt P08253).
T1 construct: purchased Calbiochem-Novabiochem International, Inc
T1 sequence (P08253 110-660): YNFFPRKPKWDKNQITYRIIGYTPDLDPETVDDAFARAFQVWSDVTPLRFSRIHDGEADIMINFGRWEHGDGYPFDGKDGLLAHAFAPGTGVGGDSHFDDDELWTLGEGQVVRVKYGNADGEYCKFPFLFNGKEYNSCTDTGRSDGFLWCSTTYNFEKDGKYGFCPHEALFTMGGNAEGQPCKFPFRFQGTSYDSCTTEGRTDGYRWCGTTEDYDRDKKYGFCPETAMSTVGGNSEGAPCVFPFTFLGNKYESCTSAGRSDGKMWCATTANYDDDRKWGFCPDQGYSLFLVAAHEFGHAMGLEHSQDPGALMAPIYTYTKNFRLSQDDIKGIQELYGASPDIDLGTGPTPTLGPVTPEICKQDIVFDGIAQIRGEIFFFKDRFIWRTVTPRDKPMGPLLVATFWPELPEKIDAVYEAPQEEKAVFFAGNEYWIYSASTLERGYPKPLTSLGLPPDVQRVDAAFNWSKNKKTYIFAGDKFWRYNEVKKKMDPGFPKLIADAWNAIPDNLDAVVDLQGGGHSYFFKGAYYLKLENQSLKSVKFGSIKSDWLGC
Nature of the data set: Assay for inhibitory activities on MMPs (fluorogenic MOCAc peptide substrate): MMP-2. In kind it is biochemical. The conditions noted are these: MMP-2 purchased from Calbiochem-Novabiochem. The protocol:
MMP-2 was purchased from Calbiochem-Novabiochem International, Inc.
(§1) The enzymatic activity on MMPs was analyzed by the method described in “C. Graham Knight, Frances Willenbrock and Gillian Murphy: A novel coumarin-labelled peptide for sensitive continuous assays of the matrix metalloproteinases: FEBS LETT., 296, (1992), 263-266”. The substrate: MOCAc-Pro-Leu-Gly-Leu-A2Pr(DNP)-Ala-Arg-NH2 was purchased from Peptide Institute, Inc., Osaka, Japan. The measurement of the inhibitory activities (IC50) was carried out by the following four methods; • (A) Reaction with substrate, enzyme (MMPs) and inhibitor • (B) Reaction with substrate and inhibitor, without enzyme • (C) Reaction with substrate and enzyme (MMPs), without inhibitor • (D) Reaction with substrate only IC50 values were calculated by using the following formula and each fluorescence values of above four methods (A to D).
(§2) The value of inhibitory activity against MMP-2, MMP-8, MMP-9, MMP-12, and MMP-13 measured by above mentioned methods are shown in Table 36, 37, 38, 39, and 40 respectively.

A further data set has as its target T2, MMP-8 (Homo sapiens, UniProt P22894).
T2 construct: In regard to MMP-8, catalytic domain (^99Phe˜^262Gly) was amplified with PCR; His-tag; enterokinase digestion-site; made in house
Nature of the data set: Assay for inhibitory activities on MMPs (fluorogenic MOCAc peptide substrate): MMP-8. The format is biochemical. The conditions noted are these: catalytic domain 99Phe-262Gly.
Excerpt: In regard to MMP-8, catalytic domain (^99Phe˜^262Gly) was amplified with PCR using commercial available Human Bone Marrow cDNA. This was cloned in Escherichia. coli expression vector pTrc99AHE inserted with His-tag sequence and enterokinase digestion-site, induced and expressed by IPTG (Isdpropyl-β-D-thiogalactopyranoside) and expressed in a insoluble fraction (Thau F. Ho, M. Walid Qoronfleh, Robert C. Wahl, Trica A. Pulvino, Karen J. Vavra, Joe Falvo, Tracey M. Banks, Patricia G. Brake and Richard B. Ciccarelli: Gene expression, purification and characterization of recombinant human neutrophil collagenase. Gene 146, (1994) 297-301, Prepared by the a improved method of this material). Isolation of MMP-8 from an insoluble fraction was carried out by dissolving in modifier (6M urea) by a usual method and purification with metal chelate chromatography. And then removing modifier (6M urea) with dialysis and refolding of the enzyme spontaneously gave activated MMP-8.
as §1, §2

Another data set deals with T3, MMP-9 (Homo sapiens, UniProt P14780).
T3 construct: made in house; host or cells: endogenous secretion from human fibrosarcoma HT1080 cells (TPA-stimulated), purified from conditioned medium
Briefly: Assay for inhibitory activities on MMPs (fluorogenic MOCAc peptide substrate): MMP-9. In kind it is biochemical. Particulars: from HT1080 cells, activated by TPCK-Trypsin.
Excerpt: MMP-9 was isolated and purified by procedures described in as follows: Yasunori Okada, Yukio Gonoji, Katsumi Naka, Katsuro Tomita, Isao Nakanishi, Kazushi Iwata, Kyoko Yamashita, and Taro Hayakawa: Matrix metalloproteinase 9 (92-kDa gelatinase/type IV collagenase) from HT1080 human fibrosarcoma cells. Purification and activation of the precursor and enzymic properties J. Biol. Chem., 1992, 267 21712-21719, in combination with others: 1) Yasunori Okada, Tatsuhisa Morodomi, Jan J, Enghild, ko Suzuki, Atsushi Yasui, Isao Nakanishi, Guy Salvesen and Hideaki Nagase: Matrix metalloproteinase 2 from human rheumatoid synovial fibroblasts. Purification and activation of the precursor and enzymic properties. Eur. J. Biochem. 1990, 194 721-730; 2) Robin V Ward, Rosalind M Hembry; John J Reynolds and Gillian Murphy: The purification of tissue inhibitor of metalloproteinase-2 from its 72 kDa progelatinase complex. Biochem. J. 1991 278 179-187. In detail, human fibrosarcoma ATCC HT1080 cell line was cultured to confluent in Dulbecco's Modified Medium (DMEM) containing 10% fetal-calf serum at 37° C. for 48 hours. Subsequently, the medium of confluent culture was changed to serum-free DMEM medium. To obtain MMP-9, Phorbol-12-myristate-13-acetate (TPA) must be added to this serum-free DMEM medium at a concentration of 50 ng/ml. The TPA treated medium was centrifuged at 3000 rpm for 15 min and the supernatant was concentrated to 450 ml by a Toyo-Roshi UP-20 apparatus with an ultrafiltration membrane. Then, proMMP-9 in this concentrated solution was purified by using columns of Gelatin-Sepharose and Concanavalin A-Sepharose. The pool containing proMMP-9 was dialyzed, concentrated (Toyo-Roshi UP-20) and applied to columns of Sephacryl S-200 and Green A matrix for the separation from TIMPs. The obtained proMMP-9 fraction was activated by TPCK-Trypsin (Final conc. 3 μg/50 μl React Mix.).
as §1, §2

Another data set concerns the target T4, MMP-12 (Homo sapiens, UniProt P39900).
T4 construct: In regard to MMP-12, catalytic domain(^100Phe˜^263Gly) was amplified with RT-PCR; His-tag; enterokinase digestion-site; made in house
Briefly: Assay for inhibitory activities on MMPs (fluorogenic MOCAc peptide substrate): MMP-12. The format is biochemical. The conditions noted are these: catalytic domain 100Phe-263Gly. The protocol:
(§3) In regard to MMP-12, catalytic domain(^100Phe˜^263Gly) was amplified with RT-PCR from Human Placenta Total RNA. This was cloned in Escherichia. coli expression vector pTrc99AHE inserted with His-tag sequence and enterokinase digestion-site, induced and expressed by IPTG (Isopropyl-β-D-thiogalactopyranoside) and expressed in a insoluble fraction. Isolation of MMP-12 from an insoluble fraction was carried out by dissolving in modifier (6M urea) by a usual method and purification with metal chelate chromatography (Ni Chelateing Sepharose). And then removing modifier (6M urea) with dialysis and refolding of the enzyme spontaneously gave activated MMP-12.
as §1, §2

A further data set concerns the target T5, MMP-13 (Homo sapiens, UniProt P45452).
T5 construct: catalytic domain (^104Tyr˜^267Gly) was amplified with RT-PCR; His-tag; enterokinase digestion-site; made in house
Briefly: Assay for inhibitory activities on MMPs (fluorogenic MOCAc peptide substrate): MMP-13. Particulars: Table 40. The format is biochemical. The method, then:
as §3, with “MMP-13, mRNA was prepared from carcinoma cell SW1353 derived from human cartilage stimulate by IL-1, TNF and” for “MMP-12,”, “domain (^104Tyr˜^267Gly)” for “domain(^100Phe˜^263Gly)”, “RT-PCR.” for “RT-PCR from Human Placenta Total RNA.”, “MMP-13” for “MMP-12”, “dialyze” for “dialysis”, “MMP-13.” for “MMP-12.”
as §1, §2

T2 sequence (P22894 99-262): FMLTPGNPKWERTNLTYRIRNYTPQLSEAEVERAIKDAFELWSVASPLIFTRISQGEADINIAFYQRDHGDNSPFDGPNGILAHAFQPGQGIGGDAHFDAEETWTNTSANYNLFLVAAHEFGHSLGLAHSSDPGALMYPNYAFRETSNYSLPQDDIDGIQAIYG
T4 sequence (P39900 100-263): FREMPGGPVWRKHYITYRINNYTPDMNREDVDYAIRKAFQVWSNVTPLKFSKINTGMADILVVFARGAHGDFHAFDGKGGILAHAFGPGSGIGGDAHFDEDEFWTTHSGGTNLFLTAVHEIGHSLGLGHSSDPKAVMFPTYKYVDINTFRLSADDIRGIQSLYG
T3 sequence (P14780 107-707 limits assumed): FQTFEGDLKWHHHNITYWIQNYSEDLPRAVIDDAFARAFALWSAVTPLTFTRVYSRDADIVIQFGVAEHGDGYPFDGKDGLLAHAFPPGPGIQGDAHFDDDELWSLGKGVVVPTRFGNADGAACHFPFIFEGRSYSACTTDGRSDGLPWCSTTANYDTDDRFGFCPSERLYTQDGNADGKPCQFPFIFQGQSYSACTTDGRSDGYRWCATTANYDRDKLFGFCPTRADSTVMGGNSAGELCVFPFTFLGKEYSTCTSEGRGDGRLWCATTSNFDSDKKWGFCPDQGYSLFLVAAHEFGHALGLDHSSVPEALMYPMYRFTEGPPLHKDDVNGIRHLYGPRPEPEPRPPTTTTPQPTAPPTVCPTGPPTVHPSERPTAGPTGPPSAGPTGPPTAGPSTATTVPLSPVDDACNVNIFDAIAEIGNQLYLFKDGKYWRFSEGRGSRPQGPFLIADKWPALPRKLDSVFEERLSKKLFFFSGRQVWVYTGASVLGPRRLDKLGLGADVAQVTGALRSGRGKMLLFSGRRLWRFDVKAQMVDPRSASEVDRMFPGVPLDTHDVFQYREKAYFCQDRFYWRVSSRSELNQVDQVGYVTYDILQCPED

Consider `Cc1ccc(-c2cc(-c3ccc(S(=O)(=O)N[C@@H](C(=O)O)C(C)C)cc3)no2)s1` [Example C-29], for which the IC50 at MMP-2 was found to be 0.0449 nM; at MMP-8, 0.000567 µM; on MMP-9 it was 0.00034 µM; against MMP-12, 0.000368 µM; on MMP-13, 0.000701 µM.
For `CC(C)[C@@H](NS(=O)(=O)c1ccc(-c2cc(-c3ccc(SC(F)(F)F)cc3)no2)cc1)C(=O)O` [Example A-32], the IC50 on MMP-9 is 0.000609 µM; at MMP-12, 0.000463 µM; on MMP-13, 0.000193 µM.
For `CCc1ccc(-c2cc(-c3ccc(S(=O)(=O)N[C@@H](C(=O)O)C(C)C)cc3)no2)cc1` [Example C-12], the IC50 on MMP-2 stood at 0.0832 nM; at MMP-9 it was 0.000532 µM; against MMP-12, 0.000316 µM; against MMP-13, 0.000266 µM.
As to `CC(C)c1ccc(-c2cc(-c3ccc(S(=O)(=O)N[C@@H](C(=O)O)C(C)C)cc3)on2)cc1` [Example A-16], the results for the IC50 against MMP-2, against MMP-12 and against MMP-13 were 0.0767 nM, 0.000687 µM and 0.000328 µM, respectively.
Taken in the same sequence, the figures for `CSc1ccc(-c2cc(-c3ccc(S(=O)(=O)N[C@H](C)C(=O)O)cc3)no2)cc1` [Example C-4] were 0.0934 nM, 0.000377 µM and 0.000404 µM.
Consider `Cc1ccc(-c2cc(-c3ccc(S(=O)(=O)N[C@@H](C(=O)O)C(C)C)cc3)on2)s1` [Example A-33], for which the figures for the IC50 against MMP-2 and against MMP-8 were 0.0971 nM and 0.00291 µM, respectively.
On to `CC(C)[C@@H](NS(=O)(=O)c1ccc(-c2cc(-c3ccc(Cl)cc3)on2)cc1)C(=O)O` [Example C-20], for which the figures for the IC50 on MMP-9 and against MMP-12 were 0.00092 µM and 0.000366 µM, respectively.
For `COc1ccc(-c2cc(-c3ccc(S(=O)(=O)N[C@@H](C(=O)O)C(C)C)cc3)no2)cc1` [Example C-18], the IC50 amounted to 0.00419 µM on MMP-8, 0.000384 µM against MMP-12 and 0.000853 µM on MMP-13.
`CSc1ccc(-c2cc(-c3ccc(S(=O)(=O)N[C@@H](C(=O)O)C(C)C)cc3)no2)cc1` [Example C-10]: the concentration for half-maximal inhibition (IC50) at MMP-2 is 0.0619 nM; against MMP-8 it was 0.0039 µM; on MMP-12, 0.000201 µM; against MMP-13, 0.000282 µM.
With `CCCCc1ccc(-c2cc(-c3ccc(S(=O)(=O)N[C@@H](C(=O)O)C(C)C)cc3)no2)cc1` [Example C-17], the IC50 was 0.00421 µM against MMP-8, 0.000239 µM against MMP-12 and 0.000578 µM against MMP-13.
For `COc1ccc(-c2cc(-c3ccc(S(=O)(=O)N[C@@H](C(=O)O)C(C)C)cc3)no2)cc1F` [Example C-51], in that order: 0.00263 µM, 0.000266 µM and 0.000836 µM.
As to `CC(C)c1ccc(-c2cc(-c3ccc(S(=O)(=O)N[C@@H](C(=O)O)C(C)C)cc3)no2)cc1` [Example C-15], the IC50 worked out at 0.049 nM at MMP-2, 0.00015 µM at MMP-12 and 0.000136 µM against MMP-13.
Take `CCC(C)[C@H](NS(=O)(=O)c1ccc(-c2cc(-c3ccc(SC)cc3)on2)cc1)C(=O)O` (stereo partly shown) [Example C-97]: the IC50 against MMP-8 stood at 0.00421 µM; against MMP-12, 0.000239 µM; against MMP-13, 0.000578 µM.
As for `CC(C)[C@@H](NS(=O)(=O)c1ccc(-c2cc(-c3ccc(Cl)c(F)c3)on2)cc1)C(=O)O` [Example C-36], the IC50 on MMP-9 amounted to 0.000741 µM; against MMP-12, 0.000245 µM.
For `Cc1ccc(-c2cc(-c3ccc(S(=O)(=O)N[C@H](C)C(=O)O)cc3)no2)cc1` [Example C-1], the melting point was 218 to 221 °C. On MMP-12, this compound returned an IC50 of 0.000707 µM.
As for `CCCc1ccc(-c2cc(-c3ccc(S(=O)(=O)N[C@@H](C(=O)O)C(C)C)cc3)no2)cc1` [Example C-14], the IC50 came to 0.0533 nM against MMP-2, 0.000216 µM on MMP-12 and 0.00015 µM at MMP-13.
For `CC(C)[C@@H](NS(=O)(=O)c1ccc(-c2cc(-c3ccc(Br)cc3)on2)cc1)C(=O)O` [Example C-22], the IC50 is 0.000706 µM at MMP-9 and 0.000275 µM against MMP-12.
In the case of `CC(C)[C@@H](NS(=O)(=O)c1ccc(-c2cc(-c3ccc(OC(F)(F)F)cc3)no2)cc1)C(=O)O` [Example A-18], the IC50 at MMP-2 turned out to be 0.0674 nM; at MMP-9, 0.00052 µM; against MMP-12, 0.000376 µM; against MMP-13, 0.000263 µM.
For the compound `CC(C)[C@@H](NS(=O)(=O)c1ccc(-c2cc(-c3ccc(Cl)s3)on2)cc1)C(=O)O` [Example C-33], the results for the IC50 at MMP-8, on MMP-9 and against MMP-12 were 0.000781 µM, 0.000467 µM and 0.000535 µM, respectively.
For the compound `Cc1ccc(-c2cc(-c3ccc(S(=O)(=O)N[C@H](Cc4ccccc4)C(=O)O)cc3)no2)s1` [Example C-124], the IC50 was found to be 0.0926 nM on MMP-2, 0.00178 µM against MMP-8, 0.000585 µM on MMP-9 and 0.000528 µM against MMP-13.
For the compound `CC(C)[C@@H](NS(=O)(=O)c1ccc(-c2cc(-c3ccc(OC(F)(F)F)cc3)on2)cc1)C(=O)O` [Example C-25], the IC50 at MMP-9 worked out at 0.00032 µM; against MMP-12, 0.000196 µM; at MMP-13 it was 0.000223 µM.
